Measurements taken from publication PMC10924921, “Mi-2β promotes immune evasion in melanoma by activating EZH2 methylation” (Nature Communications, 2024).

Experiments:
Experiment in all cases: biochemical
Set-up in all cases: KINOMEscan active-site competition binding panel (468 kinase assays), per cent of control at 1000 nM
Conditions in all cases: KINOMEscan per cent of control (binding competition); read-out: Percent Control
KIT(V559D,T670I) = KIT(V559D,T670I) (Homo sapiens, UniProt P10721, T670I/V559D)
Excerpt: (§1) Figure S7 / Percent Control

GSK3A = GSK3A (Homo sapiens, UniProt P49840)
Excerpt: as §1

MUSK = MUSK (Homo sapiens, UniProt O15146)
Excerpt: as §1

WNK2 = WNK2 (Homo sapiens, UniProt Q9Y3S1)
Excerpt: as §1

MARK3 = MARK3 (Homo sapiens, UniProt P27448)
Excerpt: as §1

CAMK2D = CAMK2D (Homo sapiens, UniProt Q13557)
Excerpt: as §1

EPHB4 = EPHB4 (Homo sapiens, UniProt P54760)
Excerpt: as §1

BUB1 = BUB1 (Homo sapiens, UniProt O43683)
Excerpt: as §1

TLK2 = TLK2 (Homo sapiens, UniProt Q86UE8)
Excerpt: as §1

ACVR2A = ACVR2A (Homo sapiens, UniProt P27037)
Excerpt: as §1

NEK7 = NEK7 (Homo sapiens, UniProt Q8TDX7)
Excerpt: as §1

MAPKAPK2 = MAPKAPK2 (Homo sapiens, UniProt P49137)
Excerpt: as §1

SRPK3 = SRPK3 (Homo sapiens, UniProt Q9UPE1)
Excerpt: as §1

TIE2 = target: T1, TIE2 (Homo sapiens, UniProt Q02763)
T1 construct: gene TEK
Excerpt: as §1

PKAC-alpha = target: T2, PKAC-alpha (Homo sapiens, UniProt P17612)
T2 construct: gene PRKACA
Excerpt: as §1

TSSK1B = TSSK1B (Homo sapiens, UniProt Q9BXA7)
Excerpt: as §1

[1] = target: T3, ABL1(Q252H)-phosphorylated (Homo sapiens, UniProt P00519, Q252H)
T3 construct: phosphorylated
Excerpt: as §1

[2] = target: T4, ABL1(F317L)-phosphorylated (Homo sapiens, UniProt P00519, F317L)
T4 construct: phosphorylated
Excerpt: as §1

IGF1R = IGF1R (Homo sapiens, UniProt P08069)
Excerpt: as §1

PAK6 = PAK6 (Homo sapiens, UniProt Q9NQU5)
Excerpt: as §1

SGK3 = SGK3 (Homo sapiens, UniProt Q96BR1)
Excerpt: as §1

AAK1 = AAK1 (Homo sapiens, UniProt Q2M2I8)
Excerpt: as §1

PRKCQ = PRKCQ (Homo sapiens, UniProt Q04759)
Excerpt: as §1

MST1R = MST1R (Homo sapiens, UniProt Q04912)
Excerpt: as §1

[3] = target: T5, RPS6KA5(Kin.Dom.2-C-terminal) (Homo sapiens, UniProt O75582)
T5 construct: Kin.Dom.2-C-terminal
Excerpt: as §1

Chain of MUSK (O15146 whole entry): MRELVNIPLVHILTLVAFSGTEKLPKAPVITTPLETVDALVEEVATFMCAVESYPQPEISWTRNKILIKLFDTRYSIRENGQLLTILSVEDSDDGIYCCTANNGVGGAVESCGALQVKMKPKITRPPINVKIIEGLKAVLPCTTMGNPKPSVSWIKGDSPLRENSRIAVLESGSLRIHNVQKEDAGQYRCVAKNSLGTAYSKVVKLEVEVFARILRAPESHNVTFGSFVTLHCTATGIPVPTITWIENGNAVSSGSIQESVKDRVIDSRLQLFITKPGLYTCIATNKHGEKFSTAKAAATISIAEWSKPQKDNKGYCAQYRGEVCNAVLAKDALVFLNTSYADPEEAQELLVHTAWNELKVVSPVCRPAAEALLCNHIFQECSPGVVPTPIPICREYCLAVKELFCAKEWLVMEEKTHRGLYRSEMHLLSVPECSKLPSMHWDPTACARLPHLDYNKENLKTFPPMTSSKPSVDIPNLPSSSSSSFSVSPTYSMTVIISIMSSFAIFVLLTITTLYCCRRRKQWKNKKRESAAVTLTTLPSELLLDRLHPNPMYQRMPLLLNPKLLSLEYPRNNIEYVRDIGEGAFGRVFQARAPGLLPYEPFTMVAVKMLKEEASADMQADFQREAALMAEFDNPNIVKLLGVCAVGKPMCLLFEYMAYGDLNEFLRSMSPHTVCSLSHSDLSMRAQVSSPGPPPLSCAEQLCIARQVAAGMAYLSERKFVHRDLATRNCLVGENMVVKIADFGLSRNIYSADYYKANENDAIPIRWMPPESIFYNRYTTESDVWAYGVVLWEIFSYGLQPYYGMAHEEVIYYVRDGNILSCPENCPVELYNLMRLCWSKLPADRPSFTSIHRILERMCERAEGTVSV
Chain of SGK3 (Q96BR1 whole entry): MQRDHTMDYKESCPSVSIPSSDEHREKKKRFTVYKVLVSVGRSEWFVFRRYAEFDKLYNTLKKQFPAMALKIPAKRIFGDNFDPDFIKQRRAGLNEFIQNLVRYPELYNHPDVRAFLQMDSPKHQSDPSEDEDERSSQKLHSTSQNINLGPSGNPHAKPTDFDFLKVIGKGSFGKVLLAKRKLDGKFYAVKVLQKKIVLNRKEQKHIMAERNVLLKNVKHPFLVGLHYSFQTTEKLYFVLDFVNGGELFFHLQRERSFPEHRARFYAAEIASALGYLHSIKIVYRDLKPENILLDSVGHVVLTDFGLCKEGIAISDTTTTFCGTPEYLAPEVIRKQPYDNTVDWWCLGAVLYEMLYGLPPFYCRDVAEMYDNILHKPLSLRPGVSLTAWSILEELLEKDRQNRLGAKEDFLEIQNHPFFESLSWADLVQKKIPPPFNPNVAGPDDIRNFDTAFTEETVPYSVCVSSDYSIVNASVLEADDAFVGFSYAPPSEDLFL
Chain of TSSK1B (Q9BXA7 whole entry): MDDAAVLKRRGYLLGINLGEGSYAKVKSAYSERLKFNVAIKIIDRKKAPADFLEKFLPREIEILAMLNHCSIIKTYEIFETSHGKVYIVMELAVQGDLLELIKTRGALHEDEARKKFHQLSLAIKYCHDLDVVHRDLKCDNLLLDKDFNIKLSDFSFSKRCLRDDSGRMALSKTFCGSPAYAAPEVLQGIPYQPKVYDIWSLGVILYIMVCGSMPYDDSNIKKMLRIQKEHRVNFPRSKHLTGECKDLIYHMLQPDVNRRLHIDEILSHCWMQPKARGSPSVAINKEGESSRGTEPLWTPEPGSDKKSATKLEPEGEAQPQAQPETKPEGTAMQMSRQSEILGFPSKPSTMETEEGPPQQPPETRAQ
Chain of ACVR2A (P27037 whole entry): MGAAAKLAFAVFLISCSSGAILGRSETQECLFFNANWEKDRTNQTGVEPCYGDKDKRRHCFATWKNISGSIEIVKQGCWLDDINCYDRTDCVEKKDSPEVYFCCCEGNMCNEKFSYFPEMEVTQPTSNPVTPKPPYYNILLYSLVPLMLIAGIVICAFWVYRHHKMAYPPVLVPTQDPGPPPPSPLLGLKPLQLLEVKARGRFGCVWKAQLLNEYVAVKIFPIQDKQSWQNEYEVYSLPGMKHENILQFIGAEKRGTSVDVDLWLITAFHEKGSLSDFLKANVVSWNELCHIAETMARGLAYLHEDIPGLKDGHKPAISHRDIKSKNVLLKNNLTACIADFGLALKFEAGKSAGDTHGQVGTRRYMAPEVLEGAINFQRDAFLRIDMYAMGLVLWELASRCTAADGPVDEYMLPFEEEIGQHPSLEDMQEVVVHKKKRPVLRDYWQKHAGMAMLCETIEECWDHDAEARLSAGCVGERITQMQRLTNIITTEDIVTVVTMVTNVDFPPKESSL
Chain of IGF1R (P08069 whole entry): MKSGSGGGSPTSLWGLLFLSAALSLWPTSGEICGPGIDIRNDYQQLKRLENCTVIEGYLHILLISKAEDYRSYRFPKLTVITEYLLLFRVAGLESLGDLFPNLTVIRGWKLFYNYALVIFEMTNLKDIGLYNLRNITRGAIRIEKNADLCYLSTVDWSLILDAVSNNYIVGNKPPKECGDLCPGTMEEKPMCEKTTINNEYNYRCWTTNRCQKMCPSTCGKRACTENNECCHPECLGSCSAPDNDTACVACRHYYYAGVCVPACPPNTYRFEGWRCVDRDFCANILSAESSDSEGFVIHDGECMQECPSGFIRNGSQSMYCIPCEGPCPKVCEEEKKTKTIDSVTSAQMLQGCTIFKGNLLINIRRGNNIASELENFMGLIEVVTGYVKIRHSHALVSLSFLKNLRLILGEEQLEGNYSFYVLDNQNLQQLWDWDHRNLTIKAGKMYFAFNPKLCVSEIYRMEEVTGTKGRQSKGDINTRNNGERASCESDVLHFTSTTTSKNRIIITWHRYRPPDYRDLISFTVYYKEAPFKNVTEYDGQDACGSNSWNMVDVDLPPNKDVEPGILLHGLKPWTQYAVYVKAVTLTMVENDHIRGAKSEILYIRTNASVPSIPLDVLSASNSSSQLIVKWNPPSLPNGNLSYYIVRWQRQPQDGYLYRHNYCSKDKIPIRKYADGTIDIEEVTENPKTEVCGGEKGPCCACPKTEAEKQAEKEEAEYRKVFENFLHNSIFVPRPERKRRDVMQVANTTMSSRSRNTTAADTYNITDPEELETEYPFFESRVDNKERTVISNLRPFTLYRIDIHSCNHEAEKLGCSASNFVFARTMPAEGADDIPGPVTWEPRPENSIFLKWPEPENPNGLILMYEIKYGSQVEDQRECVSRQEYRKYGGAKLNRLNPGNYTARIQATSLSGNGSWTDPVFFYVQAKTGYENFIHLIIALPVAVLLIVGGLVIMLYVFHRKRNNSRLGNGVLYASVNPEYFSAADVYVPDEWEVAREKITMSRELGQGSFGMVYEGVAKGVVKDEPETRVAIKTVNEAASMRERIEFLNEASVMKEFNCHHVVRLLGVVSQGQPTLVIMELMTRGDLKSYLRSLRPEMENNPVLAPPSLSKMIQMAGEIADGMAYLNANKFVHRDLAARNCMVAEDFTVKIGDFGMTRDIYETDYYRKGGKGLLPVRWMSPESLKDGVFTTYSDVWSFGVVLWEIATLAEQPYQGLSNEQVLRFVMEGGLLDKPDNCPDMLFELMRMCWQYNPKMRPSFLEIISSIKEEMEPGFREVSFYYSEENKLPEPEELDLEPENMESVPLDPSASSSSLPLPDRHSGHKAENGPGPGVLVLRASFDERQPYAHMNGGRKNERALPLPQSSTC
Chain of PAK6 (Q9NQU5 whole entry): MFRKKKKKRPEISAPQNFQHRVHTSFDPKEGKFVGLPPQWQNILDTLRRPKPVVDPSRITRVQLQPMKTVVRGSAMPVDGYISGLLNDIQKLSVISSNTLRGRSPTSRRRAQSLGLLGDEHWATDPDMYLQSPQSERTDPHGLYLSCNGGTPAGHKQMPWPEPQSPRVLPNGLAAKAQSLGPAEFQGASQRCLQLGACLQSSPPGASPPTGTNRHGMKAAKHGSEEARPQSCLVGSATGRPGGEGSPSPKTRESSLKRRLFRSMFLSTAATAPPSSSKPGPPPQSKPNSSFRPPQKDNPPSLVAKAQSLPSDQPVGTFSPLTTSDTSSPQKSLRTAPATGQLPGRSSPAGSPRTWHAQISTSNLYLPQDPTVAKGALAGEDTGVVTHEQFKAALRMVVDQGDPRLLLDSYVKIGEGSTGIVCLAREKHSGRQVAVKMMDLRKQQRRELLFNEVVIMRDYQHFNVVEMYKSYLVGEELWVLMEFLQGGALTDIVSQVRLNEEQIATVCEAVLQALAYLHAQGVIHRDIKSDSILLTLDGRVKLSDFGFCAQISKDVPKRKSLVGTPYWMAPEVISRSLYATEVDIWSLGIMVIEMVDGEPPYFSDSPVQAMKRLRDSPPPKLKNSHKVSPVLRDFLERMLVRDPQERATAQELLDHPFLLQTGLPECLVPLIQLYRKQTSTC
Chain of TLK2 (Q86UE8 whole entry): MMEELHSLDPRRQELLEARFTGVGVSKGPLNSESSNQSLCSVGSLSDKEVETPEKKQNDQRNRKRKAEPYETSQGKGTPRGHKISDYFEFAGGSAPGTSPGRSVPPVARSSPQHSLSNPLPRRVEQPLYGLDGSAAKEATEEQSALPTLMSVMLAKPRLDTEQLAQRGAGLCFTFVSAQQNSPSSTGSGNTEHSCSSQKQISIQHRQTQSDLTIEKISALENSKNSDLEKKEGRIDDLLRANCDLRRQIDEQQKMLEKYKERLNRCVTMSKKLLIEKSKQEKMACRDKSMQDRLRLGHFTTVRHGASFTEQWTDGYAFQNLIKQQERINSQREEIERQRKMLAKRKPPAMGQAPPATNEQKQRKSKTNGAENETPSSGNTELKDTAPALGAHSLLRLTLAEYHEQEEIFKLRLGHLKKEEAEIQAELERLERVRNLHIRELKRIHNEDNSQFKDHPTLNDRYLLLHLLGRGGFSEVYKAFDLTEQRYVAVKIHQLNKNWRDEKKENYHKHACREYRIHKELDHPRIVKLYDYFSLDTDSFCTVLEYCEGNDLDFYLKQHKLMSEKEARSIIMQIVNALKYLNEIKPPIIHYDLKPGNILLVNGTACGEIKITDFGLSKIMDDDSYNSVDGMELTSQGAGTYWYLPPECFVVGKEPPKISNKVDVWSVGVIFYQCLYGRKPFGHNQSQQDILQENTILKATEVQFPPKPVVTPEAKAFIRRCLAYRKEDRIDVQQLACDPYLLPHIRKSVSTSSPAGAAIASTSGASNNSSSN

## Cn1c(=O)[nH]c2ccc(-c3cccc(C(=O)NC4CCn5ccnc5C4)c3)cc21 (stereo not shown) [Z36-MP5]
KIT(V559D,T670I)
  remaining binding at 1 µM: 86%
GSK3A
  remaining binding at 1 µM: 95%
MUSK
  remaining binding at 1 µM: 83%
WNK2
  remaining binding at 1 µM: 63%
MARK3
  remaining binding at 1 µM: 100%
CAMK2D
  remaining binding at 1 µM: 89%
EPHB4
  remaining binding at 1 µM: 84%
BUB1
  remaining binding at 1 µM: 73%
TLK2
  remaining binding at 1 µM: 53%
ACVR2A
  remaining binding at 1 µM: 57%
NEK7
  remaining binding at 1 µM: 89%
MAPKAPK2
  remaining binding at 1 µM: 55%
SRPK3
  remaining binding at 1 µM: 51%
TIE2
  remaining binding at 1 µM: 58%
PKAC-alpha
  remaining binding at 1 µM: 85%
TSSK1B
  remaining binding at 1 µM: 92%
[1]
  remaining binding at 1 µM: 69%
[2]
  remaining binding at 1 µM: 83%
IGF1R
  remaining binding at 1 µM: 97%
PAK6
  remaining binding at 1 µM: 91%
SGK3
  remaining binding at 1 µM: 60%
AAK1
  remaining binding at 1 µM: 91%
PRKCQ
  remaining binding at 1 µM: 86%
MST1R
  remaining binding at 1 µM: 64%
[3]
  remaining binding at 1 µM: 51%
